{"source": "PubChem BioAssay AID1996"}
{"conditions": "buffer; pH 7.4; 200.0 µM", "units": {"solubility kinetic": "µg/mL"}}
{"smiles": "CCCCOc1cc(C(=O)NCCN(CC)CC)c2ccccc2n1", "solubility kinetic": "> 51.5"}
{"smiles": "Cc1ccc(C)n1-c1ccc(C(=O)NCc2ccncc2)cc1", "solubility kinetic": 38.3}
{"smiles": "CC(=O)Nc1ccc(NC(=O)CNC(=O)c2cccc(C)c2)cc1", "solubility kinetic": 20.4}
{"smiles": "COC(=O)c1ccc(CN2C(=O)NC(CC(C)C)C2=O)cc1", "note": "(stereo not drawn)", "solubility kinetic": "> 45.7"}
{"smiles": "CCCCN(c1ccccc1)S(=O)(=O)c1cccc2cccnc12", "solubility kinetic": 9}
{"smiles": "CCOC(=O)N1CCN(C(=O)COC(=O)c2cc(C)ccc2C)CC1", "solubility kinetic": "> 52.3"}
{"smiles": "N/C(CS(=O)(=O)c1ccccc1)=N\\OC(=O)c1ccc(F)cc1", "solubility kinetic": 8.8}
{"smiles": "COc1cc(OC)cc(C(=O)N2CC(=O)Nc3ccccc32)c1", "solubility kinetic": "> 46.8"}
{"smiles": "CCCN(CC(=O)Nc1ccccc1C)C(=O)c1cnc(C)cn1", "solubility kinetic": "> 49"}
{"smiles": "OCc1ccccc1CN1CCCCCC1", "solubility kinetic": 28.8}
{"smiles": "Cc1nn(CC(=O)NCCc2ccccc2)c(=O)c2cccn12", "solubility kinetic": "> 46.6"}
{"smiles": "Oc1ccc(Nc2nc(-c3ccccc3F)nc3ccccc23)cc1", "solubility kinetic": 1.4}
{"smiles": "O=C1CC2(CCN(C(=O)COc3ccc(F)cc3)CC2)Oc2ccccc21", "solubility kinetic": "> 55.4"}
{"smiles": "Cn1c(C(=O)O)c(S(=O)(=O)c2ccc(Cl)cc2)c2ccccc21", "solubility kinetic": 51.8}
{"smiles": "Cc1ccccc1C(=O)NCCCNC(=O)c1cnccn1", "solubility kinetic": 40.1}
{"smiles": "Cc1cccc(C)c1NC(=S)N1CCC(c2ccccc2)C1", "note": "(stereo not drawn)", "solubility kinetic": 34.1}
{"smiles": "CCc1cc2ccccc2nc1Cl", "solubility kinetic": "< 0.4"}
{"smiles": "O=C(Nc1ccc2c(c1)OCO2)c1cc(-c2ccccc2Cl)on1", "solubility kinetic": 1.7}
{"smiles": "CCS(=O)(=O)c1ccc(O)c(NC(=O)CCCC(=O)O)c1", "solubility kinetic": 41.5}
{"smiles": "CCN(C(=S)NC(=O)c1ccco1)c1cccc2ccccc12", "solubility kinetic": 46.5}
{"smiles": "CC(C)(C)C(=O)Nc1sc(-c2ccccc2)cc1C(=O)O", "solubility kinetic": "> 45.5"}
{"smiles": "CCCCN1C(=O)c2ccc(C(=O)N(C)CC(=O)Nc3ccc(OCC)c(OCC)c3)cc2C1=O", "solubility kinetic": 17.5}
{"smiles": "O=C(COC(=O)c1ccc([N+](=O)[O-])cc1)NC1CCCC1", "solubility kinetic": 21.2}
{"smiles": "COC(=O)c1cc(CNC(=O)C2CC(=O)N(c3ccc4c(c3)OCCO4)C2)ccc1OC", "note": "(stereo not drawn)", "solubility kinetic": 64.7}
{"smiles": "O=S(=O)(NCc1ccccc1)c1ccc2ccccc2c1", "solubility kinetic": 1.1}
{"smiles": "COc1ccccc1NS(=O)(=O)c1cc(NC(=O)C2CCCO2)ccc1C", "note": "(stereo not drawn)", "solubility kinetic": "> 58.6"}
{"smiles": "COc1ccc(C(=O)NCCCN2CCOCC2)cc1", "solubility kinetic": "> 41.8"}
{"smiles": "CCCc1nc(-c2cc3ccccc3[nH]c2=O)no1", "solubility kinetic": "> 38.3"}
{"smiles": "CC(=O)c1c(N2CCOCC2)nc2ccc(Cl)cc2c1-c1ccccc1", "solubility kinetic": 1.8}
{"smiles": "CCCn1cccc(C(=O)Nc2ccc(OC)cc2)c1=O", "solubility kinetic": "> 42.9"}
{"smiles": "CCOC(=O)N1CCc2c(sc(NC(=O)CN(CC)CC)c2C#N)C1", "solubility kinetic": "> 54.7"}
{"smiles": "CSc1nc(N2CCOCC2)c2sccc2n1", "solubility kinetic": 38.6}
{"smiles": "Clc1nc(CN2CCOCC2)nc2sc3c(c12)CCC3", "solubility kinetic": 44.5}
{"smiles": "CN(C)[C@@H]1C(=O)C(C(N)=O)=C(O)[C@@]2(O)C(=O)C3=C(O)c4c(O)cccc4[C@@](C)(O)[C@H]3[C@H](O)[C@@H]12", "solubility kinetic": 47}
{"smiles": "Cc1ccc(OC(C)C(=O)Nc2cc(C)on2)cc1", "note": "(stereo not drawn)", "solubility kinetic": 36.2}
{"smiles": "COc1ccc(CNc2ncnc3sccc23)cc1", "solubility kinetic": "> 40.7"}
{"smiles": "Cc1[nH]c2ccccc2c1SCC(=O)N1CCC(C)CC1", "solubility kinetic": "> 45.4"}
{"smiles": "COc1ccc(C(=O)Nc2ccccc2C(=O)N2CCOCC2)cc1", "solubility kinetic": "> 51.1"}
{"smiles": "CN(C(=O)COC(=O)c1cn(C)c2ccccc12)C1CCCCC1", "solubility kinetic": "> 49.3"}
{"smiles": "Cc1ccc(S(=O)(=O)N2CCN(c3ccccn3)CC2)cc1", "solubility kinetic": 0.3}
{"smiles": "COc1ccccc1C(=O)CSc1nccn1C", "solubility kinetic": 35.9}
{"smiles": "COc1cc(NC(=S)NCCO)c(OC)cc1Cl", "solubility kinetic": "> 43.6"}
{"smiles": "COc1ccc(Cc2nnc(-c3ccccc3)o2)cc1", "solubility kinetic": "> 39.9"}
{"smiles": "CCOC(=O)NC(=O)/C(C#N)=C/c1ccc(N(C)C)cc1", "solubility kinetic": 15.1}
{"smiles": "Cc1ccc(CN2CCN(c3ccccc3Cl)CC2)o1", "solubility kinetic": 10}
{"smiles": "CC(C)(CNc1ccc(C(F)(F)F)cc1[N+](=O)[O-])N1CCOCC1", "solubility kinetic": 5.5}
{"smiles": "CCn1cnc2c1c(=O)n(CC(=O)O)c(=O)n2Cc1ccccc1", "solubility kinetic": "> 49.2"}
{"smiles": "Cc1ccc(NC(=O)CN(C)C(=O)COc2cccc3ccc(C)nc23)cc1", "solubility kinetic": 3.9}
{"smiles": "COc1cccc(CN(C)C(=O)CCC(=O)c2cc(Br)ccc2OC)c1", "solubility kinetic": 18.3}
{"smiles": "CCOc1ccccc1OCCC(=O)OCC(=O)c1ccc[nH]1", "solubility kinetic": 21.8}
{"smiles": "Cc1cc(C)c(NC(=O)C(=O)NCc2ccco2)c(C)c1", "solubility kinetic": 4.1}
{"smiles": "COc1ccc2cc(C(=O)C3CCCN(Cc4cccc(C)n4)C3)ccc2c1", "note": "(stereo not drawn)", "solubility kinetic": 37.7}
{"smiles": "C=CCSc1ncccc1C(=O)NCCc1ccccc1", "solubility kinetic": 29.3}
{"smiles": "O=C(COC(=O)c1cccc(Br)c1)NCCC1=CCCCC1", "solubility kinetic": 2.5}
{"smiles": "CN(C(=O)Nc1ccc(C(C)(C)C)cc1)C1CCCCC1", "solubility kinetic": "< 0.3"}
{"smiles": "O=C(O)Cn1c(=O)c2cccn2c2ccccc21", "solubility kinetic": "> 36.3"}
{"smiles": "COc1ccc(/C=C/c2ccc3cccc(O)c3n2)cc1Br", "solubility kinetic": "< 0.8"}
{"smiles": "CN(Cc1c(F)cccc1Cl)C(=O)c1cnc2ccccc2n1", "solubility kinetic": 38.3}
{"smiles": "O=S(=O)(NCC1CCCO1)c1ccc(Cl)cc1", "note": "(stereo not drawn)", "solubility kinetic": 25.5}
{"smiles": "Cc1ccccc1NC(=O)COC(=O)C1C2CC3OC(=O)C1C3C2", "note": "(stereo not drawn)", "solubility kinetic": "> 49.4"}
{"smiles": "O=C(O)CCCNc1ccc(S(=O)(=O)N2CCCCC2)cc1", "solubility kinetic": "> 49"}
{"smiles": "O=C(O)CCC(=O)Nc1ccc(Br)cc1C(=O)c1ccc(Cl)cc1", "solubility kinetic": 44.9}
{"smiles": "Cc1c(NCc2ccccc2O)c(=O)n(-c2ccccc2)n1C", "solubility kinetic": "> 46.4"}
{"smiles": "COc1ccc(NC(=O)c2cc3ccccc3[nH]2)cc1", "solubility kinetic": 1.5}
{"smiles": "COc1cccc(OP(=O)(Nc2ccccc2)Oc2cccc(OC)c2)c1", "solubility kinetic": "< 0.8"}
{"smiles": "Cc1ccc(CN(C)C(=O)c2cccc(S(=O)(=O)N3CCCC3)c2)o1", "solubility kinetic": "> 54.4"}
{"smiles": "OCc1nc2ccccc2n1CCOc1ccccc1", "solubility kinetic": "> 40.2"}
{"smiles": "O=C(CN1C(=O)c2ccccc2C1=O)N(CCO)Cc1ccccc1", "solubility kinetic": 48.7}
{"smiles": "Cc1cccc(C(=O)NCC(=O)N2CC(=O)Nc3ccccc32)c1", "solubility kinetic": "> 48.5"}
{"smiles": "CCC(C)NS(=O)(=O)c1cc2c3c(c1)CCN3C(=O)CC2", "note": "(stereo not drawn)", "solubility kinetic": "> 46.3"}
{"smiles": "CC(=O)C(Sc1nccc(-c2cccs2)n1)C(C)=O", "solubility kinetic": 40.5}
{"smiles": "COc1ccc(OCC(=O)NC2CCSc3ccccc32)cc1", "note": "(stereo not drawn)", "solubility kinetic": 38.6}
{"smiles": "NC(=O)c1ccc(NC(=O)COC(=O)c2ccc(Cl)nc2)cc1", "solubility kinetic": "> 50.1"}
{"smiles": "Cc1csc(NC(=O)c2ccccc2)n1", "solubility kinetic": "> 32.7"}
{"smiles": "O=C(O)C1Cc2ccccc2CN1C(=O)c1ccco1", "note": "(stereo not drawn)", "solubility kinetic": 30.7}
{"smiles": "CCC(C(=O)NC1CCN(C)CC1)c1ccccc1", "note": "(stereo not drawn)", "solubility kinetic": "> 39.1"}
{"smiles": "Cc1nc(SCc2cccnc2)[nH]c(=O)c1C", "solubility kinetic": "> 37.1"}
{"smiles": "Cl.c1ccc(C2CN3CCSC3=N2)cc1", "note": "(stereo not drawn)", "solubility kinetic": "> 36.1"}
{"smiles": "CC(C)Oc1ccc(C(=O)OC(C)C(=O)NC2CCCCC2C)cc1", "note": "(stereo not drawn)", "solubility kinetic": 4.4}
{"smiles": "Cc1ccc(S(=O)(=O)NC2=NCN(C)CN2)cc1[N+](=O)[O-]", "solubility kinetic": "> 47"}
{"smiles": "Cc1ccc(NCC(O)Cn2cnc3c2c(=O)n(C)c(=O)n3C)cc1", "note": "(stereo not drawn)", "solubility kinetic": 31.8}
{"smiles": "Cc1[nH]c2ccccc2c1C(C[N+](=O)[O-])c1ccco1", "note": "(stereo not drawn)", "solubility kinetic": 37.9}
{"smiles": "CC(C)CCNC(=O)c1ccc(-n2cnc3cccnc32)cc1", "solubility kinetic": "> 46.3"}
{"smiles": "CCC(=NCC1CCCO1)c1c(O)n(-c2ccccc2C)c(=O)[nH]c1=O", "note": "(stereo not drawn)", "solubility kinetic": "> 53.6"}
{"smiles": "CC12CC3CC(C)(C1)CC(NCc1ccncc1)(C3)C2.Cl", "solubility kinetic": "> 46"}
{"smiles": "COc1ccc(S(=O)(=O)Nc2ncccn2)cc1", "solubility kinetic": 23.1}
{"smiles": "CC(=O)N(CN1C(=O)C2C3C=CC(C3)C2C1=O)c1cccc(Cl)c1", "note": "(stereo not drawn)", "solubility kinetic": 50.4}
{"smiles": "O=C(Nc1ccc(Cl)cc1)C1CCN(C(=O)c2cccs2)CC1", "solubility kinetic": 12.9}
{"smiles": "N#Cc1cnn(-c2ccc(F)cc2)c1N", "solubility kinetic": "> 30.3"}
{"smiles": "COc1ccccc1N1C(=O)CC(N(O)c2ccccc2)C1=O", "note": "(stereo not drawn)", "solubility kinetic": "> 46.8"}
{"smiles": "COc1ccc(CCNC(=O)COc2ccc(C)nc2[N+](=O)[O-])cc1", "solubility kinetic": "> 51.8"}
{"smiles": "O=C(CN1CCN(c2ccccc2F)CC1)NCc1ccc(Cl)cc1", "solubility kinetic": 49.1}
{"smiles": "Cc1ccc(C(=O)CSc2nc(C(C)C)nc3ccccc23)cc1", "solubility kinetic": 0.6}
{"smiles": "O=C(COc1ccc(-c2nnco2)cc1)N1CCOCC1", "solubility kinetic": "> 43.4"}
{"smiles": "COc1ccccc1CC(=O)NCc1csc(-c2cccs2)n1", "solubility kinetic": 46}
{"smiles": "O=C(NCC1COc2ccccc2O1)C1CCN(S(=O)(=O)c2ccccc2)CC1", "note": "(stereo not drawn)", "solubility kinetic": 40.8}
{"smiles": "Cn1cccc1C(=O)NCc1ccc(S(N)(=O)=O)cc1", "solubility kinetic": "> 44"}
{"smiles": "CCOC(=O)c1[nH]cnc1C(=O)Nc1ccc(F)cc1", "solubility kinetic": 6.7}
{"smiles": "CCc1ccc(NC(=O)/C(C#N)=C/c2ccncc2)cc1", "solubility kinetic": 8.8}
{"smiles": "Cc1ccc(C(=O)Nc2ccccc2C(=O)N2CCCCCC2)cc1", "solubility kinetic": "> 50.5"}
{"smiles": "COc1ccc(C(=O)NC2CCCc3ccccc32)c(OC)c1OC", "note": "(stereo not drawn)", "solubility kinetic": 41.9}
{"smiles": "Cc1oc(S(=O)(=O)N2CCCC2)cc1C(=O)Nc1ccc(F)cc1", "solubility kinetic": 1.5}
{"smiles": "Cc1ccc(Cl)cc1NC(=S)NCCCSC1CCCCC1", "solubility kinetic": 2.5}
{"smiles": "CCc1sc(C(=O)Nc2nc(C)cs2)cc1C", "solubility kinetic": 7.3}
{"smiles": "Cc1ccc2nc(N3CCN(C)CC3)c(C=O)c(=O)n2c1", "solubility kinetic": 41.3}
{"smiles": "Cc1ccccc1NC(=O)COC(=O)[C@@H]1CCCN1C(=O)c1cccs1", "solubility kinetic": "> 55.9"}
{"smiles": "CN(C)c1nc(Nc2ccc(Cl)c(Cl)c2)nc(N(C)C)n1", "solubility kinetic": "< 0.1"}
{"smiles": "CC(=O)Nc1ccc(-c2csc(Nc3cc(C)ccn3)n2)cc1", "solubility kinetic": 0.4}
{"smiles": "O=C(COc1cccnc1[N+](=O)[O-])NCc1ccc(F)cc1", "solubility kinetic": "> 45.8"}
{"smiles": "O=C(O)Cc1ccc2c(c1)N(S(=O)(=O)c1cccs1)CC(C(=O)O)O2", "note": "(stereo not drawn)", "solubility kinetic": "> 57.5"}
{"smiles": "CCOc1ccccc1NC(=O)CN1C(=O)CSC(C)C1=O", "note": "(stereo not drawn)", "solubility kinetic": "> 48.4"}
{"smiles": "O=C(c1ccc(Cl)cc1)N1CCc2c([nH]c3ccccc23)C1C(F)(F)F", "note": "(stereo not drawn)", "solubility kinetic": 1.4}
{"smiles": "CNS(=O)(=O)Cc1ccc2[nH]cc(CCN(C)C)c2c1", "solubility kinetic": 40.3}
{"smiles": "NC(=O)c1cc([N+](=O)[O-])cc2c1C=Cc1ccccc1O2", "solubility kinetic": 4.6}
{"smiles": "CC1CC(C)(C)N2C(=O)C(=C(C#N)C#N)c3cccc1c32", "note": "(stereo not drawn)", "solubility kinetic": 1.2}
{"smiles": "CSc1nccc(-c2c(-c3ccc(Cl)cc3)noc2C)n1", "solubility kinetic": 4.6}
{"smiles": "COc1ccccc1OCC#CCSc1ncccn1", "solubility kinetic": "> 43"}
{"smiles": "O=C(NCC(=O)N1CCCCC1)c1ccc2ccccc2c1", "solubility kinetic": "> 44.5"}
